From patent US20250099407A1, “2-AMINO BENZOPHENONE DERIVATIVES FOR TARGETED FERROPTOSIS INDUCTION IN CANCER THERAPY” (INDIAN INSTITUTE OF TECHNOLOGY KANPUR, priority 2023, published 2025)

Key:
Huh-7 cells = test: Cell viability, luminescence-based CellTiter-Glo assay, Huh-7 cells; conditions: Homo sapiens, Huh-7, Huh-7 cells, cell viability; read-out: EC50 Huh-7
Method: The viability of Huh-7 cells was recorded using a luminescence-based CellTiter-Glo® assay. The screening concentration of the molecules were 10 μM with or without Fer-1 (10 μM) in DMEM media (>0.1% DMSO as control).
Ferroptosis is a unique form of cell death mechanism mediated by the accumulation of lipid peroxides in cells which is distinct from healthy cells' apoptosis, a programmed […] route. We aimed to exploit the induction of ferroptosis in cancer cells using covalent small molecules as a potential strategy for cancer therapeutic development. […] We used various amide bond formation chemistry to construct the library members and these molecules are well characterized by various spectroscopic and mass spectrometry techniques. Once confirmed, these thiol reactive library members were screened in a cancer cell viability assay in combination with ferrostatin-1 (Fer-1), a ferroptosis inhibitor as depicted in FIG. 11. […] We have screened a total of ˜50 electrophilic small molecules to prevent the proliferation of hepatocellular carcinoma (Huh-7 cells) in combination with and without Fer-1. From our initial screening, we identified haloacetamides of 2-aminoalkylbenzophenone as potential ferroptosis inducers as depicted in FIG. 11.
(§1) The viability of screened cancer cells was recorded using a luminescence-based CellTiter-Glo® assay for the ATP quantification. The screening concentration of the molecule ranged from 100/10 μM to 45/4.5 nM with an 8-point-3-fold dilution series in DMEM media (>0.1% DMSO as control). Each experiment was conducted in more than two biological replicates with three technical replicates. The error bar is a representation of standard deviation among the technical replicates.
The viability of screened cancer cells was recorded using a luminescence-based CellTiter-Glo® assay for the ATP quantification. The screening concentration of IITK3002 ranged from 10 μM to 4.5 nM with an 8-point-3-fold dilution series in DMEM media (>0.1% DMSO as control). Each experiment was conducted in more than two biological replicates with three technical replicates. The error bar is a representation of standard deviation among the technical replicates. […]
a. Electrophilic Warhead Optimization: Once we identified 2-benzoylphenyl-a-haloacetamide as the lead scaffold, we have investigated the structure-activity-relationship analysis to precisely capture the effect of various chemical handles of the scaffold and use the knowledge to improve the overall potency and selectivity of this molecule to prevent cancer cell proliferation. First, we changed the haloacetamide electrophilic unit with various other electrophiles with a characteristic high, moderate, and weak reactivity with thiols when compared to chloroacetamide. Therefore, we opted vinylsulfonamide (highly reactivity), acrylamide (moderate reactivity), and phenoxyacetamides (weak reactivity warheads) for incorporation in the place of haloacetamide warhead of the top hit scaffold. Once synthesized, these molecules were evaluated to assess their antiproliferative potency against Huh-7 cells (Table 2). As expected, the introduction of weakly reactive electrophilic warheads, phenoxyactamides, completely lost the activity against Huh-7 cells. […] Perhaps, the secondary interactions of the electrophilic warhead with the target proteins might play additional roles. Therefore, we shifted our focus to optimize the rest of the core scaffold for further SAR analysis. b. Role of N-Substitutions: Next, we synthesized the NH-derivative of haloacetamides to capture the importance of N-alkylation on the activity of our hit molecule. […] Perhaps the hydrogen bonding induced planarity around the warhead influences the molecules' weakened potency. Conversely, the additional flexibility in the lead molecule (tertiary amide) might contribute to the strong antiproliferative activity of the hit molecule. […]

U2OS = test: Cell viability, CellTiter-Glo assay, U2OS; type: cell-based; conditions: Homo sapiens
Method: as §1
(§2) The viability of screened cancer cells was recorded using a luminescence-based CellTiter-Glo® assay for the ATP quantification. The screening concentration of IITK3002 ranged from 10 μM to 4.5 nM with an 8-point-3-fold dilution series in DMEM media (>0.1% DMSO as control). Each experiment was conducted in more than two biological replicates with three technical replicates. The error bar is a representation of standard deviation among the technical replicates.
(§3) a. […] In parallel, we have also synthesized the bromoacetamide (IITK3002) version of the lead molecules which is slightly more reactive with thiol nucleophiles when compared to chlorooacetamide warheads as depicted in FIG. 13. […] In addition, we also evaluated the molecules' antiproliferative potency against a panel of twelve different cancer phenotypes. The set of cancer cell lines included liver, breast, colon, myeloma, bone, blood, skin, brain and prostate lineages (FIG. 2, 3, Table 1).

PC3 = test: Cell viability, CellTiter-Glo assay, PC3; type: cell-based; conditions: Homo sapiens, PC-3, PC3, cell viability
Method: as §1, §2, §3

22Rv1 = test: Cell viability, CellTiter-Glo assay, 22Rv1; type: cell-based; conditions: Homo sapiens, 22Rv1, 22Rv1, cell viability
Method: as §1, §2, §3

A549 = test: Cell viability, A549; type: cell-based; conditions: Homo sapiens

| Structure (SMILES) | EC50 (Huh-7 cells) [µM] | EC50 (U2OS) [µM] | EC50 (PC3) [µM] | EC50 (22Rv1) [µM] | EC50 (A549) [µM] |
| --- | --- | --- | --- | --- | --- |
| CN(C(=O)COc1ccc(F)cc1)c1ccccc1C(=O)c1ccccc1 [IITK3006, N-(2-benzoylphenyl)-2-(4-fluorophenoxy)-N-methylacetamide] | > 20 | > 20 | > 20 | > 20 | > 20 |
| CN(C(=O)COc1ccc(C(C)(C)C)cc1)c1ccccc1C(=O)c1ccccc1 [IITK3008, N-(2-benzoylphenyl)-2-(4-(tert-butyl)phenoxy)-N-methylacetamide] | > 20 | – | 12.8 | – | – |
| CN(C(=O)COc1ccc(Br)cc1)c1ccccc1C(=O)c1ccccc1 [IITK3009, N-(2-benzoylphenyl)-2-(4-bromophenoxy)-N-methylacetamide] | > 20 | > 20 | > 20 | > 20 | > 20 |
| C=CC(=O)N(C)c1ccccc1C(=O)c1ccccc1 [IITK3010, N-(2-benzoylphenyl)-N-methylacrylamide] | – | > 20 | > 20 | > 20 | > 20 |
| C=CS(=O)(=O)N(C)c1ccccc1C(=O)c1ccccc1 [IITK3011, N-(2-benzoylphenyl)-N-methylethenesulfonamide] | – | > 20 | > 20 | > 20 | > 20 |
| O=C(CCl)Nc1ccccc1C(=O)c1ccccc1 [IITK3012, N-(2-benzoylphenyl)-2-chloroacetamide] | – | > 20 | > 20 | > 20 | > 20 |
| C=CCN(C(=O)COc1ccccc1)c1ccccc1C(=O)c1ccccc1 [IITK3020, N-allyl-N-(2-benzoylphenyl)-2-phenoxyacetamide] | – | > 20 | > 20 | > 20 | > 20 |
| C=CCN(C(=O)COc1ccc(C(C)(C)C)cc1)c1ccccc1C(=O)c1ccccc1 [IITK3023, N-allyl-N-(2-benzoylphenyl)-2-(4-(tert-butyl)phenoxy)acetamide] | – | > 100 | > 20 | > 20 | 20 |
| CC(C)N(C(=O)CCl)c1ccccc1C(=O)c1ccccc1 [IITK3028, N-(2-benzoylphenyl)-2-chloro-N-isopropylacetamide] | 19.6 | > 20 | > 20 | > 20 | > 20 |
| C#CCN(C(=O)COc1ccccc1)c1ccccc1C(=O)c1ccccc1 [IITK3029, N-(2-benzoylphenyl)-2-phenoxy-N-(prop-2-yn-1-yl)acetamide] | > 20 | > 20 | > 20 | > 20 | > 20 |
| C#CCN(C(=O)COc1ccc(F)cc1)c1ccccc1C(=O)c1ccccc1 [IITK3030, N-(2-benzoylphenyl)-2-(4-fluorophenoxy)-N-(prop-2-yn-1-yl)acetamide] | > 100 | > 20 | > 20 | > 20 | > 20 |
| C#CCN(C(=O)COc1ccc(Br)cc1)c1ccccc1C(=O)c1ccccc1 [IITK3033, N-(2-benzoylphenyl)-2-(4-bromophenoxy)-N-(prop-2-yn-1-yl)acetamide] | > 20 | > 20 | > 20 | > 20 | > 20 |
| O=C(c1ccccc1)c1ccccc1N(Cc1ccccc1)C(=O)CCl [IITK3034, N-(2-benzoylphenyl)-N-benzyl-2-chloroacetamide] | – | – | – | 3.85 | – |
| O=C(c1ccccc1)c1ccccc1N(Cc1ccccc1)C(=O)CBr [IITK3035, N-(2-benzoylphenyl)-N-benzyl-2-bromoacetamide] | – | 0.19 | 0.53 | 0.77 | 0.24 |
| O=C(c1ccccc1)c1ccccc1N(Cc1ccccc1)C(=O)COc1ccccc1 [IITK3036, N-(2-benzoylphenyl)-N-benzyl-2-phenoxyacetamide] | > 20 | > 20 | > 20 | > 20 | > 20 |
| O=C(c1ccccc1)c1ccccc1N(Cc1ccccc1)C(=O)COc1ccc(F)cc1 [IITK3037, N-(2-benzoylphenyl)-N-benzyl-2-(4-fluorophenoxy)acetamide] | > 20 | > 20 | > 20 | > 20 | > 20 |
| CC(C)(C)c1ccc(OCC(=O)N(Cc2ccccc2)c2ccccc2C(=O)c2ccccc2)cc1 [IITK3038, N-(2-benzoylphenyl)-N-benzyl-2-(4-(tert-butyl)phenoxy)acetamide] | > 100 | > 20 | > 20 | > 20 | > 20 |
| O=C(CBr)Nc1ccc([N+](=O)[O-])cc1C(=O)c1ccccc1 [IITK3051, N-(2-benzoyl-4-nitrophenyl)-2-bromoacetamide] | – | > 20 | > 20 | > 20 | > 20 |
